# Test results: patent US12453726B2, “Methods of using factor B inhibitors” (priority 2020, dated 2025)
# Structures can show the parent of a compound that is named as a salt.
# Columns and labels:
# [1] = system: anti-C5 antibody treatment naive PNH patients; assay: Phase 2 study interim analysis: LNP023 hydrochloride monotherapy in anti-C5 antibody treatment naive PNH patients; format: in vivo, human
# Procedure: (§1) The dose of 200 mg LNP023 hydrochloride b.i.d. as continuous treatment has been selected for this Phase 3 study primarily based on the available efficacy and safety data obtained at the time of interim analyses from the two ongoing Phase 2 PNH studies (ClinicalTrials.gov Identifier: NCT03439839 and NCT03896152) and is supported by PKPD modeling results.
# In the Phase 2 study (NCT03439839) in anti-C5 antibody treatment naive patients, participants received LNP023 hydrochloride monotherapy with sequential dose increments at Week 4 from LNP023 hydrochloride 25 mg b.i.d. to 100 mg b.i.d (sequence 1) or LNP023 hydrochloride 50 mg b.i.d. to 200 mg b.i.d. (sequence 2). An IA was conducted after 8 patients were randomized and 7 patients completed Week 8 visit assessments.
# (§2) The hematological response participants achieved with LNP023 hydrochloride 200 mg b.i.d. add-on therapy was maintained with LNP023 hydrochloride monotherapy during the extension period (at the time of the IA) when eculizumab treatment was discontinued in 5/10 participants who continued with LNP023 hydrochloride monotherapy. Following the IA, two additional participants discontinued eculizumab treatment.
# alternative pathway = assay: Exposure-response model from First In Human study data (Wieslab assay); conditions: dose of about 200 mg b.i.d., in >70% of subjects; model built on healthy volunteer data
# Procedure: The exposure-response model developed with data from the First In Human (FIH) study with LNP023 hydrochloride in healthy volunteers predicts that a dose of about 200 mg b.i.d. would be needed to achieve >90% inhibition of the alternative pathway (Wieslab assay) in >70% of subjects. Given the risk of hemolysis and breakthroughs in cases of insufficient inhibition of complement activity, full inhibition is desired and modelling results provide additional support for the choice of the dose of 200 mg b.i.d. for PNH.
# [2] = system: PNH patients with active hemolysis despite treatment with eculizumab; assay: Phase 2 study CLNP023X2201 interim analysis: LNP023 hydrochloride add-on to eculizumab in PNH patients with active hemolysis; format: in vivo, human
# Procedure: as §1
# In the CLNP023X2201 study in patients with active hemolysis despite treatment with eculizumab, LNP023 hydrochloride at a dose of 200 mg b.i.d. was administered to 10 PNH participants (cohort 1) and at a dose of 50 mg b.i.d. to 6 PNH participants (cohort 2). An interim analysis (IA) was conducted after 10 participants (cohort 1) completed at least 12 weeks of treatment with LNP023 hydrochloride 200 mg b.i.d. add-on treatment to eculizumab.
# as §2
# [3] = system: patients with IgA nephropathy; assay: Study CLNP023X2203, safety and tolerability; format: in vivo, human; conditions: 200 mg b.i.d.
# [4] = system: patients with C3 glomerulopathy; assay: Study CLNP023X2202, safety and tolerability; format: in vivo, human; conditions: 200 mg b.i.d.
# [5] = 200 mg b.i.d., PNH participants
# [6] = 200 mg b.i.d. added to eculizumab
# [7] = 200 mg b.i.d. as add-on to eculizumab, cohort 1, interim analysis
smiles,measurement,setting,value
"CCO[C@H]1CCN(Cc2c(OC)cc(C)c3[nH]ccc23)[C@H](c2ccc(C(=O)O)cc2)C1 [LNP023 hydrochloride, 4-((2S,4S)-(4-ethoxy-1-((5-methoxy-7-methyl-1H-indol-4-yl)methyl)piperidin-2-yl))benzoic acid hydrochloride]",safety and tolerability,[1]; [5],safe and well tolerated
same,bilirubin (extravascular hemolysis),[1]; monotherapy,decrease
same,haptoglobin (extravascular hemolysis),[1]; monotherapy,increase
same,reticulocytes (extravascular hemolysis),[1]; monotherapy,decrease
same,transfusion-free hemoglobin,"[1]; monotherapy, dose levels ≥25 mg b.i.d.",early transfusion-free hemoglobin increase in the majority of participants
same,LDH reduction from baseline,"[1]; monotherapy, dose levels ≥25 mg b.i.d., all participants",more than 60%
same,predicted inhibition of the alternative pathway (Wieslab assay),alternative pathway,> 90%
same,C3 deposition,[2]; [6],fully reversed
same,Fragment Bb (target engagement),[2]; [6],profound and sustained reduction
same,inhibition of the complement alternative pathway,[2]; [6],sustained inhibition
same,survival of PNH red blood cells,[2]; [6],prolonged
same,bilirubin (control of EVH),[2]; [7],reduction
same,haptoglobin (control of EVH),[2]; [7],increase
same,hemoglobin in the absence of red blood cell transfusions,[2]; [7],normalization of hemoglobin in the majority of patients
same,reticulocytes (control of EVH),[2]; [7],reduction
same,control of IVH demonstrated by LDH,"[2]; 200 mg b.i.d. as add-on to eculizumab, cohort 1, interim analysis after at least 12 weeks",LDH reduction
same,hematological response during the extension period after eculizumab was discontinued,"[2]; 200 mg b.i.d. monotherapy, 5/10 participants who discontinued eculizumab",maintained
same,safety and tolerability,[2]; [5],safe and well tolerated
same,response at 50 mg b.i.d.,"[2]; cohort 2, 50 mg b.i.d., preliminary, three participants required up-titration to 200 mg b.i.d.",suboptimal response
same,safety and tolerability,[3],safe and well tolerated
same,safety and tolerability,[4],safe and well tolerated
